System: 454973-116-R2-J3-PDC spheroids, percent test/control viability
Test: Anticancer human tumor 454973-116-R2-J3-PDC patient-derived pancreatic carcinoma cell line growth inhibition [CLK]
Conditions: spheroids with HUVEC and MSC; for IC50: curve of first compound; for viability, T/C: stronger effect = lower value
Procedure, shortened: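 Patient-derived tumor cells grown as complex spheroids with HUVEC endothelial cells and mesenchymal stem cells, treated with drug combinations. Concentrations descend in half-log steps from near clinical Cmax, or from 10 microM if Cmax unknown.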
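Note: spheroids exposed to compounds for 7 days before readout.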

In the case of `CC1COCCN1c1cc(C2(S(C)(=N)=O)CC2)nc(-c2ccnc3[nH]ccc23)n1` (configuration not stated) + CNC(=O)c1ccc(Nc2nc(OC3CCCC3)c3c(-c4ccc5nc(C)oc5c4)c[nH]c3n2)c(OC)c1, the IC50 (second compound 0.0316 µM) is reported as 6.28 µM, the IC50 (second compound 0.1 µM) is reported as 7.33 µM and the IC50 (second compound 0.316 µM) is reported as < 0.0316 µM. The IC50 (second compound 1 µM) was < 0.0316 µM, the IC50 (second compound 3.16 µM) was < 0.0316 µM and the IC50 (second compound 10 µM) was < 0.0316 µM. The viability, T/C (second compound 0.0316 µM, first compound 0.0316 µM) was 96.7%, the viability, T/C (second compound 0.0316 µM, first compound 0.1 µM) was 103% and the viability, T/C (second compound 0.0316 µM, first compound 0.316 µM) was 97.8%. It also gave a viability, T/C (second compound 0.0316 µM, first compound 1 µM) of 101%, a viability, T/C (second compound 0.0316 µM, first compound 3.16 µM) of 73.3% and a viability, T/C (second compound 0.0316 µM, first compound 10 µM) of 34.2%. It also gave a viability, T/C (second compound 0.1 µM, first compound 0.0316 µM) of 103%, a viability, T/C (second compound 0.1 µM, first compound 0.1 µM) of 97.5% and a viability, T/C (second compound 0.1 µM, first compound 0.316 µM) of 94.7%. It also gave a viability, T/C (second compound 0.1 µM, first compound 1 µM) of 93.6%, a viability, T/C (second compound 0.1 µM, first compound 3.16 µM) of 84.4% and a viability, T/C (second compound 0.1 µM, first compound 10 µM) of 37.4%. It also gave a viability, T/C (second compound 0.316 µM, first compound 0.0316 µM) of 37%, a viability, T/C (second compound 0.316 µM, first compound 0.1 µM) of 43.9% and a viability, T/C (second compound 0.316 µM, first compound 0.316 µM) of 45.1%. For the same compound, the viability, T/C (second compound 0.316 µM, first compound 1 µM) was 40.1%, the viability, T/C (second compound 0.316 µM, first compound 3.16 µM) was 48.3% and the viability, T/C (second compound 0.316 µM, first compound 10 µM) was 29.5%. For the same compound, the viability, T/C (second compound 1 µM, first compound 0.0316 µM) was 27.9%, the viability, T/C (second compound 1 µM, first compound 0.1 µM) was 30.9% and the viability, T/C (second compound 1 µM, first compound 0.316 µM) was 30.5%. It also gave a viability, T/C (second compound 1 µM, first compound 1 µM) of 27.3%, a viability, T/C (second compound 1 µM, first compound 3.16 µM) of 25.3% and a viability, T/C (second compound 1 µM, first compound 10 µM) of 15.8%. For the same compound, the viability, T/C (second compound 3.16 µM, first compound 0.0316 µM) was 30.4%, the viability, T/C (second compound 3.16 µM, first compound 0.1 µM) was 24.3% and the viability, T/C (second compound 3.16 µM, first compound 0.316 µM) was 28.9%. The viability, T/C (second compound 3.16 µM, first compound 1 µM) was 28.1%, the viability, T/C (second compound 3.16 µM, first compound 3.16 µM) was 19.3% and the viability, T/C (second compound 3.16 µM, first compound 10 µM) was 12.3%. For the same compound, the viability, T/C (second compound 10 µM, first compound 0.0316 µM) was 29.8%, the viability, T/C (second compound 10 µM, first compound 0.1 µM) was 27.3% and the viability, T/C (second compound 10 µM, first compound 0.316 µM) was 27.5%. For the same compound, the viability, T/C (second compound 10 µM, first compound 1 µM) was 25.5%, the viability, T/C (second compound 10 µM, first compound 3.16 µM) was 17.4% and the viability, T/C (second compound 10 µM, first compound 10 µM) was 10.3%.

Source: PubChem BioAssay AID2060618 (Molecular Pharmacology Branch, DTP, NCI, 2025)
